One test deals with ENR+CD organoids. The experiment in a line: Primary screen: ATP (CellTiter-Glo 3D, CTG) cell number/viability, 2.5-D 384-well ENR+CD organoids.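 On all read-outs here: compounds given at plating and again on day 3 over a 6-day differentiation from ENR+CV stem-cell-enriched precursors, ATP measured on day 6, plate median as control.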 As to conditions: primary screen; for Z.CTG: standard z score.
The test system of test [1] is ENR+CD organoids (ISC to Paneth cell differentiation). The experiment in a line: Primary screen: CCh-stimulated lysozyme secretion LYZ.S, 2.5-D 384-well ENR+CD organoid differentiation. In kind it is cell-based, mouse. As to conditions: primary screen. An excerpt: (§1) High-throughput screening.
Test [2] has the same test system. The experiment in a line: Primary screen: basal (non-stimulated) lysozyme secretion LYZ.NS, 2.5-D 384-well ENR+CD organoid differentiation. The format is cell-based, mouse.
From the text: as §1

The mark [3] stands for this setting: dose 0.08 uM, FC vs plate median.
[4] abbreviates: dose 0.40 uM, FC vs plate median.
Where [5] appears, read: dose 2.00 uM, FC vs plate median.
Where [6] appears, read: dose 10.00 uM, FC vs plate median.
[7] abbreviates: primary screen, dose 0.08 uM, standard z score.
Setting [8] is: primary screen, dose 0.40 uM, standard z score.
Setting [9] is: primary screen, dose 2.00 uM, standard z score.
Where [10] appears, read: primary screen, dose 10.00 uM, standard z score.
Setting [11] is: primary screen; dose 0.08 uM; FC vs plate median.
Setting [12] is: primary screen; dose 0.40 uM; FC vs plate median.
Where [13] appears, read: primary screen; dose 2.00 uM; FC vs plate median.
[14] abbreviates: primary screen; dose 10.00 uM; FC vs plate median.
[15] abbreviates: dose 0.08 uM, FC relative to plate median.
Where [16] appears, read: dose 0.40 uM, FC relative to plate median.
Setting [17] is: dose 2.00 uM, FC relative to plate median.
Setting [18] is: dose 10.00 uM, FC relative to plate median.

Structures are written as SMILES. Structures can show the parent of a compound that is named as a salt.

Turning to `O=C(O)/C=C/c1ccc(Cn2ccnc2)cc1` [Ozagrel], the Dose.FC.CTG was 0.055 log2 fold change in the test with ENR+CD organoids (setting [3]), 0.224 log2 fold change in the test with ENR+CD organoids (setting [4]), −0.063 log2 fold change in the test on ENR+CD organoids (setting [5]) and 0.113 log2 fold change with ENR+CD organoids (setting [6]). For the same compound, the Dose.FC.LYZ.S in test [1] (setting [3]) was determined as 0.145 log2 fold change; in test [1] (setting [4]), 0.096 log2 fold change; in test [1] (setting [5]) it was 0.104 log2 fold change; in test [1] (setting [6]), 0.011 log2 fold change. The Z.LYZ.NS is recorded as 0.645 in test [2] (setting [7]), 0.381 in test [2] (setting [8]), 0.698 in test [2] (setting [9]) and −0.068 in test [2] (setting [10]). In addition, the Dose.FC.LYZ.NS in test [2] (setting [11]) is recorded as 0.074 log2 fold change; in test [2] (setting [12]) it was 0.044 log2 fold change; in test [2] (setting [13]), 0.080 log2 fold change; in test [2] (setting [14]) it was −0.008 log2 fold change.

`C=CCc1cccc(/C=N/NC(=O)CN2CCN(Cc3ccccc3)CC2)c1O` [PAC-1]: the Z.CTG with ENR+CD organoids (dose 0.08 uM) is listed as 0.228; in the test with ENR+CD organoids (dose 0.40 uM), 0.270; with ENR+CD organoids (dose 2.00 uM), −0.576; with ENR+CD organoids (dose 10.00 uM), 0.004. Also, the Dose.FC.CTG is on record as 0.095 log2 fold change in the test on ENR+CD organoids (setting [3]), 0.113 log2 fold change in the test with ENR+CD organoids (setting [4]), −0.241 log2 fold change in the test on ENR+CD organoids (setting [5]) and 0.002 log2 fold change in the test with ENR+CD organoids (setting [6]). In addition, the Dose.FC.LYZ.S in test [1] (setting [3]) is 0.128 log2 fold change; in test [1] (setting [4]), 0.059 log2 fold change; in test [1] (setting [5]), −0.006 log2 fold change; in test [1] (setting [6]) it was 0.092 log2 fold change. Also, the Z.LYZ.NS is 1.365 in test [2] (setting [7]), 0.457 in test [2] (setting [8]), 1.094 in test [2] (setting [9]) and 0.596 in test [2] (setting [10]). Besides, the Dose.FC.LYZ.NS in test [2] (setting [11]) amounted to 0.157 log2 fold change; in test [2] (setting [12]), 0.053 log2 fold change; in test [2] (setting [13]) it was 0.126 log2 fold change; in test [2] (setting [14]), 0.068 log2 fold change.

Regarding `COCCCC/C(=N\OCCN)c1ccc(C(F)(F)F)cc1` [Fluvoxamine maleate], the Dose.FC.CTG in the test on ENR+CD organoids (dose 0.08 uM) amounted to 0.115 log2 fold change; in the test on ENR+CD organoids (dose 0.40 uM), 0.254 log2 fold change; in the test on ENR+CD organoids (dose 2.00 uM), 0.211 log2 fold change; with ENR+CD organoids (dose 10.00 uM) it was 0.138 log2 fold change. Moreover, the Dose.FC.LYZ.S in test [1] (dose 0.08 uM) turned out to be 0.114 log2 fold change; in test [1] (dose 0.40 uM), 0.172 log2 fold change; in test [1] (dose 2.00 uM) it was 0.108 log2 fold change; in test [1] (dose 10.00 uM), 0.012 log2 fold change. In addition, the Dose.FC.LYZ.NS was 0.074 log2 fold change in test [2] (primary screen, dose 0.08 uM); 0.087 log2 fold change in test [2] (primary screen, dose 0.40 uM); 0.089 log2 fold change in test [2] (primary screen, dose 2.00 uM); −0.027 log2 fold change in test [2] (primary screen, dose 10.00 uM). The Z.LYZ.NS in test [2] (primary screen, standard z score, dose 0.08 uM) was 0.642; in test [2] (primary screen, standard z score, dose 0.40 uM), 0.756; in test [2] (primary screen, standard z score, dose 2.00 uM), 0.778; in test [2] (primary screen, standard z score, dose 10.00 uM), −0.235.

Consider `CC#CCn1c(N2CCC[C@@H](N)C2)nc2c1c(=O)n(Cc1nc(C)c3ccccc3n1)c(=O)n2C` [Linagliptin], for which the “Dose.FC.CTG (log2 fold change)” value with ENR+CD organoids (dose 0.08 uM) is given as 0.163; in the test with ENR+CD organoids (dose 0.40 uM), 0.209; in the test with ENR+CD organoids (dose 2.00 uM), 0.023; in the test with ENR+CD organoids (dose 10.00 uM), −0.011. For the same compound, the “Dose.FC.LYZ.S (log2 fold change)” value in test [1] (dose 0.08 uM) is 0.140; in test [1] (dose 0.40 uM) it was 0.047; in test [1] (dose 2.00 uM), −0.032; in test [1] (dose 10.00 uM), 0.050. Also, the “Dose.FC.LYZ.NS (log2 fold change)” value in test [2] (primary screen, dose 0.08 uM) was 0.208; in test [2] (primary screen, dose 0.40 uM), 0.055; in test [2] (primary screen, dose 2.00 uM) it was 0.021; in test [2] (primary screen, dose 10.00 uM), 0.080. Moreover, the “Z.LYZ.NS (standard z score)” value in test [2] (primary screen, dose 0.08 uM) stood at 1.809; in test [2] (primary screen, dose 0.40 uM), 0.478; in test [2] (primary screen, dose 2.00 uM), 0.182; in test [2] (primary screen, dose 10.00 uM), 0.695.

Take `C[C@@H]1CN(CC(=O)Nc2ccc3c(c2)Cc2cccc(-c4cc(=O)cc(N5CCOCC5)o4)c2S3)C[C@H](C)O1` [KU-60019]: the “Dose.FC.CTG (log2 fold change)” value is listed as 0.114 in the test on ENR+CD organoids (dose 0.08 uM), 0.039 in the test with ENR+CD organoids (dose 0.40 uM), 0.121 with ENR+CD organoids (dose 2.00 uM) and −0.522 in the test on ENR+CD organoids (dose 10.00 uM). Besides, the “Dose.FC.LYZ.S (log2 fold change)” value is 0.230 in test [1] (dose 0.08 uM), 0.073 in test [1] (dose 0.40 uM), −0.049 in test [1] (dose 2.00 uM) and −0.222 in test [1] (dose 10.00 uM). Moreover, the “Dose.FC.LYZ.NS (log2 fold change)” value in test [2] (primary screen, dose 0.08 uM) was 0.042; in test [2] (primary screen, dose 0.40 uM) it was −0.001; in test [2] (primary screen, dose 2.00 uM), −0.015; in test [2] (primary screen, dose 10.00 uM) it was −0.088. The “Z.LYZ.NS (standard z score)” value in test [2] (primary screen, dose 0.08 uM) was 0.365; in test [2] (primary screen, dose 0.40 uM), −0.012; in test [2] (primary screen, dose 2.00 uM) it was −0.132; in test [2] (primary screen, dose 10.00 uM), −0.769.

For the compound `CC(C)(C)c1cnc(CSc2cnc(NC(=O)C3CCNCC3)s2)o1` [SNS-032 (BMS-387032)], the Dose.FC.CTG is −0.075 log2 fold change in the test with ENR+CD organoids (setting [15]), −0.083 log2 fold change in the test with ENR+CD organoids (setting [16]), −0.915 log2 fold change in the test on ENR+CD organoids (setting [17]) and −1.009 log2 fold change in the test on ENR+CD organoids (setting [18]). The Z.CTG was −0.180 in the test with ENR+CD organoids (dose 0.08 uM), −0.198 in the test on ENR+CD organoids (dose 0.40 uM), −2.186 in the test with ENR+CD organoids (dose 2.00 uM) and −2.411 in the test on ENR+CD organoids (dose 10.00 uM). The Dose.FC.LYZ.S was 0.070 log2 fold change in test [1] (setting [15]), −0.206 log2 fold change in test [1] (setting [16]), −0.301 log2 fold change in test [1] (setting [17]) and −0.361 log2 fold change in test [1] (setting [18]). Moreover, the Dose.FC.LYZ.NS was 0.049 log2 fold change in test [2] (primary screen, dose 0.08 uM, FC relative to plate median); −0.143 log2 fold change in test [2] (primary screen, dose 0.40 uM, FC relative to plate median); −0.276 log2 fold change in test [2] (primary screen, dose 2.00 uM, FC relative to plate median); −0.254 log2 fold change in test [2] (primary screen, dose 10.00 uM, FC relative to plate median). For the same compound, the Z.LYZ.NS is 0.428 in test [2] (setting [7]), −1.241 in test [2] (setting [8]), −2.399 in test [2] (setting [9]) and −2.214 in test [2] (setting [10]).

With `COc1ccc2c(c1)C(=O)N(CCc1ccc(S(=O)(=O)NC(=O)NC3CCCCC3)cc1)C(=O)C2(C)C` [Gliquidone], the “Dose.FC.CTG (log2 fold change)” value amounted to 0.124 with ENR+CD organoids (dose 0.08 uM), 0.103 in the test with ENR+CD organoids (dose 0.40 uM), 0.246 in the test with ENR+CD organoids (dose 2.00 uM) and 0.134 in the test with ENR+CD organoids (dose 10.00 uM). Moreover, the “Dose.FC.LYZ.S (log2 fold change)” value in test [1] (dose 0.08 uM) was 0.101; in test [1] (dose 0.40 uM) it was 0.070; in test [1] (dose 2.00 uM), 0.006; in test [1] (dose 10.00 uM), −0.020. For the same compound, the “Dose.FC.LYZ.NS (log2 fold change)” value in test [2] (primary screen, dose 0.08 uM) came out at 0.103; in test [2] (primary screen, dose 0.40 uM), 0.037; in test [2] (primary screen, dose 2.00 uM) it was 0.086; in test [2] (primary screen, dose 10.00 uM), 0.031. Moreover, the “Z.LYZ.NS (standard z score)” value worked out at 0.893 in test [2] (primary screen, dose 0.08 uM); 0.322 in test [2] (primary screen, dose 0.40 uM); 0.747 in test [2] (primary screen, dose 2.00 uM); 0.268 in test [2] (primary screen, dose 10.00 uM).

The values are drawn from US20220323406A1, “METHODS AND COMPOSITIONS FOR DIFFERENTIATING STEM CELLS” (Massachusetts Institute of Technology, priority 2019, published 2022).
